Reference: PMC4079327 (Journal of Medicinal Chemistry, 2014)
pIC50: −log10 of the molar value.

Key:
HsDHODH = HsDHODH (Homo sapiens, UniProt Q02127); assay: DHODH steady-state inhibition, DCIP assay; assay type: biochemical
PfDHODH [1] = biological target: T1, PfDHODH (Plasmodium falciparum, UniProt Q08210, DEL384-413); assay: Isothermal titration calorimetry; assay type: binding; conditions: ITC, 303 K; for ΔH PfDHODH: 1σ confidence interval in parentheses
T1 sequence (Q08210 with tags, fused parts or gaps DEL384-413): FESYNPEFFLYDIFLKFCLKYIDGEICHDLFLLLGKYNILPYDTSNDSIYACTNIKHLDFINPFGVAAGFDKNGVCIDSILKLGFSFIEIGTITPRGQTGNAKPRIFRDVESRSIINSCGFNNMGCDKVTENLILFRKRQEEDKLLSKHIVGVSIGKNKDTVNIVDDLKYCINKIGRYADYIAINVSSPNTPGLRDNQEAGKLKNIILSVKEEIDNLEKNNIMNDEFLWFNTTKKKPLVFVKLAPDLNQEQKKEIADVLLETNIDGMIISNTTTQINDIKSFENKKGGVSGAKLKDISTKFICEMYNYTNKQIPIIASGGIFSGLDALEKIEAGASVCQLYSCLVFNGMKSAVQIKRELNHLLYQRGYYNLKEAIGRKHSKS

HsDHODH R136A = HsDHODH R136A (Homo sapiens, UniProt Q02127, R135A); assay: biochemical
HsDHODH L46A = HsDHODH L46A (Homo sapiens, UniProt Q02127, L45A); assay: biochemical
rat DHODH = rat DHODH (Rattus norvegicus, UniProt Q63707); assay: Isothermal titration calorimetry; assay type: binding; conditions: ITC, 303 K; for ΔH rat DHODH: 1σ confidence interval in parentheses
rDHODH = rDHODH (Rattus norvegicus, UniProt Q63707); assay: DHODH steady-state inhibition, DCIP assay; assay type: biochemical
dDHODH = dDHODH (Canis lupus familiaris, UniProt A0A8I3MWX2); assay: DHODH steady-state inhibition, DCIP assay; assay type: biochemical, dog
mDHODH = mDHODH (Mus musculus, UniProt O35435); assay: DHODH steady-state inhibition, DCIP assay; assay type: biochemical
P. falciparum 3D7 cells = conditions: read-out: IC50 P. falciparum 3D7 cells; cited from earlier work
PfDHODH [2] = biological target: T2, PfDHODH (Plasmodium falciparum, UniProt Q08210); conditions: read-out: IC50 PfDHODH; cited from earlier work
T2 sequence (Q08210 158-569): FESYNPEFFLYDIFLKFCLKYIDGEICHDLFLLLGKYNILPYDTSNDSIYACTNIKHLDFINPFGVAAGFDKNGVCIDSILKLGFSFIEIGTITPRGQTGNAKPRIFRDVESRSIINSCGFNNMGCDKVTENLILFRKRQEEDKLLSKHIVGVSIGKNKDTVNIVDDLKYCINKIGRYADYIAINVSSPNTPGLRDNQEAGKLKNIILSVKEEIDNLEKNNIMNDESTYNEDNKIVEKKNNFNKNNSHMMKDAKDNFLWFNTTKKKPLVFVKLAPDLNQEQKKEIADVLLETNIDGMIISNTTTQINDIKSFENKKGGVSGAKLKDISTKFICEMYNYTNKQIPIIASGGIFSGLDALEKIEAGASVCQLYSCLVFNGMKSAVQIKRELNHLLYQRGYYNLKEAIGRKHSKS

HsDHODH L359A = HsDHODH L359A (Homo sapiens, UniProt Q02127, L358A); assay: biochemical
Sequence of HsDHODH L359A (Q02127 32-395 L358A): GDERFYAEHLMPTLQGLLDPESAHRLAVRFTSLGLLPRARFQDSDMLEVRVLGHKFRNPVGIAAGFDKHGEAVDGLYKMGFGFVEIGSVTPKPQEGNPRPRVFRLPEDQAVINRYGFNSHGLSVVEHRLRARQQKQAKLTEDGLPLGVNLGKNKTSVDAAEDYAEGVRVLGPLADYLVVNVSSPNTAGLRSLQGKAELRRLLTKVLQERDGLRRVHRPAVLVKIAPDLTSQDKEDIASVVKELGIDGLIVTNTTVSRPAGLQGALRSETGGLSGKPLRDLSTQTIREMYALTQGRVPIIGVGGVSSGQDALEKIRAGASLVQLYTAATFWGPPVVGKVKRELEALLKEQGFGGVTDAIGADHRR

Sequence of HsDHODH L46A (Q02127 32-395 L45A): as the sequence (Q02127 32-395 L358A) above, with L14A, A327L counted along it
Sequence of HsDHODH R136A (Q02127 32-395 R135A): as the sequence (Q02127 32-395 L358A) above, with R104A, A327L counted along it
Sequence of rat DHODH (Q63707 32-395 limits assumed): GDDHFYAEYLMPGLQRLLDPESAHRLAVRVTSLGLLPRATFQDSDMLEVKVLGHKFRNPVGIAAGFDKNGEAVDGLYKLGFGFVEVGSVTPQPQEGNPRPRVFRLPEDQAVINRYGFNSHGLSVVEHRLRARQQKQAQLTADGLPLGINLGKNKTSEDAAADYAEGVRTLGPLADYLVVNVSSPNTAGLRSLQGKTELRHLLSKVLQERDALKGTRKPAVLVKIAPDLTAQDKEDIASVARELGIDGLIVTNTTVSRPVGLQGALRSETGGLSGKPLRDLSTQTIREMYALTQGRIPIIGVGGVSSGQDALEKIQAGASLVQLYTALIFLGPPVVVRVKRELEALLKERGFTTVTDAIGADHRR
Sequence of HsDHODH (Q02127 29-395 limits assumed): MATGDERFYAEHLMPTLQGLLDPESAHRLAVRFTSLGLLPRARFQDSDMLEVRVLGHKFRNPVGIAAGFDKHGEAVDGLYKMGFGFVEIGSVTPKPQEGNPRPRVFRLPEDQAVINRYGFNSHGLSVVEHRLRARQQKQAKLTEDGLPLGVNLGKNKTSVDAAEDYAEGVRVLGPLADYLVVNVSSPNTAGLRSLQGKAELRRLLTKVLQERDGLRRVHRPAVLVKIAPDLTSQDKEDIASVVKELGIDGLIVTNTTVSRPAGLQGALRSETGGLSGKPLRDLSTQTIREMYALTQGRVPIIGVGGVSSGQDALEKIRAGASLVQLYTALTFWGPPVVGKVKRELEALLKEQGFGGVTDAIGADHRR
Sequence of rDHODH (Q63707 29-395 limits assumed): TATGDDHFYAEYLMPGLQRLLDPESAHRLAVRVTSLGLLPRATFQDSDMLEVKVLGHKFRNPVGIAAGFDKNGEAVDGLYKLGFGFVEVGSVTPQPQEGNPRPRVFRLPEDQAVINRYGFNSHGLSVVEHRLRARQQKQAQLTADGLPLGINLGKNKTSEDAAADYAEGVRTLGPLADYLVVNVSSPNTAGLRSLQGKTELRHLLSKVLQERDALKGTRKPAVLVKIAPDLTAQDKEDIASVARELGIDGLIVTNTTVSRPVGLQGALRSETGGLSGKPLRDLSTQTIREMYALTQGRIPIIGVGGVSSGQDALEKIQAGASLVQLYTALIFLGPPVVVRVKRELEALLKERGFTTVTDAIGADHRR
Sequence of mDHODH (O35435 29-395 limits assumed): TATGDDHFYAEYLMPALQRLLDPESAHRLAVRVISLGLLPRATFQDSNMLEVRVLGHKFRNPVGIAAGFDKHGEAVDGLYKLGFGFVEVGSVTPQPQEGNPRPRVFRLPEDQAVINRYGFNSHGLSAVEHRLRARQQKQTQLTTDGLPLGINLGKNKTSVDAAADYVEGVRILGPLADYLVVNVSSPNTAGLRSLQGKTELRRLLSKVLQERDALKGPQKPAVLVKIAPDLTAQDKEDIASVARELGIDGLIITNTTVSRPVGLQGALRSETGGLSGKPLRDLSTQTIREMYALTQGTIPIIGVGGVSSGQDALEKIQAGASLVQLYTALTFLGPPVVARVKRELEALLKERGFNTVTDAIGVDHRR
Sequence of dDHODH (A0A8I3MWX2 29-395): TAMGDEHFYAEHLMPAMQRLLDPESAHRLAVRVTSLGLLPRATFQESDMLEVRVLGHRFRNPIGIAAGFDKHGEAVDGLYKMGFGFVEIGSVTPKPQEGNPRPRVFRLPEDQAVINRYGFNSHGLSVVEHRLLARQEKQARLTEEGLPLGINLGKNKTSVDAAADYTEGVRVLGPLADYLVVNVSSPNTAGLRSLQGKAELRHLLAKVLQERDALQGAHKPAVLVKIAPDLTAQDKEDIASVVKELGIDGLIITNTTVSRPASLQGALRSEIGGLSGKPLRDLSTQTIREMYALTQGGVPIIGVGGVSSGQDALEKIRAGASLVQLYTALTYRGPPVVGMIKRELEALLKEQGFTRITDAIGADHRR

Row | Compound | inhibition of the human enzyme (in words) (HsDHODH) | –TΔS PfDHODH (PfDHODH [1]) | ΔH PfDHODH (PfDHODH [1]) | pIC50 (HsDHODH R136A) | pIC50 (HsDHODH L46A) | ΔH rat DHODH (rat DHODH) | inhibition of rat DHODH (in words) (rDHODH) | inhibition of dog DHODH (in words) (dDHODH) | inhibition of mouse DHODH (in words) (mDHODH) | pIC50 (P. falciparum 3D7 cells) | pIC50 (PfDHODH [2]) | pIC50 (HsDHODH L359A) | –TΔS rat DHODH (rat DHODH)
1 | Cc1cc(Nc2ccc(C(F)(F)F)cc2)n2nc(C(C)(F)F)nc2n1 [Compound 5, 2-(1,1-difluoroethyl)-5-methyl-N-[4-(trifluoromethyl)phenyl]-[1,2,4]triazolo[1,5-a]pyrimidin-7-amine] | did not inhibit | –2.2 kcal/mol | –8.3 (−9.2 to −7.5) kcal/mol |  |  |  |  |  |  |  |  |  | 
2 | Cc1cc(Nc2cc(F)c(C(F)(F)F)c(F)c2)n2nc(C(F)(F)F)nc2n1 [Compound 6, N-(3,5-difluoro-4-(trifluoromethyl)phenyl)-2-(trifluoromethyl)-5-methyl-[1,2,4]-triazolo[1,5-a]pyrimidin-7-amine] |  | –4.5 kcal/mol | –6.5 (−6.9 to −6.2) kcal/mol | < 4.00 | < 4.00 | –1.6 (−1.8 to −1.5) kcal/mol |  |  |  |  |  |  | 
3 | Cc1cc(Nc2ccc(C(F)(F)F)cc2)n2ncnc2n1 [Compound 8, (5-methyl[1,2,4]triazolo[1,5-a]pyrimidin-7-yl)(4-trifluoromethylphenyl)amine] | did not inhibit | 1.5 kcal/mol | –10 (−12 to −9.8) kcal/mol |  |  |  | did not inhibit | did not inhibit | did not inhibit |  |  |  | 
4 | Cc1cc(Nc2cc(F)c(C(F)(F)F)c(F)c2)n2ncnc2n1 [Compound 9, N-(3,5-difluoro-4-(trifluoromethyl)phenyl)-5-methyl-[1,2,4]triazolo[1,5-a]pyrimidin-7-amine] |  |  |  |  |  |  |  |  |  | 6.66 | 6.89 |  | 
5 | Cc1cc(Nc2ccc(C(F)(F)F)c(F)c2)n2nc(C(C)(F)F)nc2n1 [Compound 10, 2-(1,1-difluoroethyl)-N-[3-fluoro-4-(trifluoromethyl)phenyl]-5-methyl [1,2,4]triazolo[1,5-a]pyrimidin-7-amine] |  | –2.1 kcal/mol | –9.0 (−9.3 to −8.7) kcal/mol | < 4.00 | < 4.00 |  |  |  |  |  |  | < 4.00 | 
6 | Cc1cc(Nc2cc(F)c(C(F)(F)F)c(F)c2)n2nc(C(C)(F)F)nc2n1 [Compound 11, N-(3,5-difluoro-4-(trifluoromethyl)phenyl)-2-(1,1-difluoroethyl)-5-methyl[1,2,4]-triazolo-[1,5-a]pyrimidin-7-amine] |  | –3.3 kcal/mol | –8.1 (−8.8 to −7.5) kcal/mol | < 4.00 | < 4.00 | –2.1 (−2.5 to −1.9) kcal/mol |  |  |  |  |  | < 4.00 | –8.0 kcal/mol
